Experimental data published in PubChem BioAssay (NCI).
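Protocol summary: plate cells (96-well), add compound at 5 concentrations, incubate 48 h, interpolate endpoints linearly. TGI marks complete inhibition of growth.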

Experiments:
Assay in all cases: DTP human tumour cell line panel, 48 h
786-0 renal = tested on: 786-0 renal
A498 renal = tested on: A498 renal
ACHN renal = tested on: ACHN renal
CAKI-1 renal = tested on: CAKI-1 renal
COLO 205 colon = tested on: COLO 205 colon
DMS 114 small cell lung = tested on: DMS 114 small cell lung
DMS 273 small cell lung = tested on: DMS 273 small cell lung
HCT-116 colon = tested on: HCT-116 colon
HCT-15 colon = tested on: HCT-15 colon
HOP-18 NSCLC = tested on: HOP-18 NSCLC
HOP-62 NSCLC = tested on: HOP-62 NSCLC
HOP-92 NSCLC = tested on: HOP-92 NSCLC
HT29 colon = tested on: HT29 colon
IGROV1 ovarian = tested on: IGROV1 ovarian
KM20L2 colon = tested on: KM20L2 colon
LOX IMVI melanoma = tested on: LOX IMVI melanoma
LXFL 529 NSCLC = tested on: LXFL 529 NSCLC
M14 melanoma = tested on: M14 melanoma
M19-MEL melanoma = tested on: M19-MEL melanoma
MOLT-4 leukemia = tested on: MOLT-4 leukemia
NCI-H23 lung = tested on: NCI-H23 lung
NCI-H460 lung = tested on: NCI-H460 lung
OVCAR-8 ovarian = tested on: OVCAR-8 ovarian
RXF 393 renal = tested on: RXF 393 renal
RXF-631 renal = tested on: RXF-631 renal
SF-268 CNS = tested on: SF-268 CNS
SF-295 CNS = tested on: SF-295 CNS
SF-539 CNS = tested on: SF-539 CNS
SK-MEL-28 melanoma = tested on: SK-MEL-28 melanoma
SK-OV-3 ovarian = tested on: SK-OV-3 ovarian
SN12C renal = tested on: SN12C renal
TK-10 renal = tested on: TK-10 renal
U251 CNS = tested on: U251 CNS
UACC-62 melanoma = tested on: UACC-62 melanoma
UO-31 renal = tested on: UO-31 renal
XF 498 CNS = tested on: XF 498 CNS
A549 NSCLC = tested on: A549 NSCLC
CCRF-CEM leukemia = tested on: CCRF-CEM leukemia
DLD-1 colon = tested on: DLD-1 colon
EKVX NSCLC = tested on: EKVX NSCLC
HCC-2998 colon = tested on: HCC-2998 colon
HL-60(TB) leukemia = tested on: HL-60(TB) leukemia
K-562 leukemia = tested on: K-562 leukemia
KM12 colon = tested on: KM12 colon
MALME-3M melanoma = tested on: MALME-3M melanoma
NCI-H226 lung = tested on: NCI-H226 lung
NCI-H522 lung = tested on: NCI-H522 lung
OVCAR-3 ovarian = tested on: OVCAR-3 ovarian
RPMI-8226 leukemia = tested on: RPMI-8226 leukemia
SK-MEL-2 melanoma = tested on: SK-MEL-2 melanoma
SNB-19 CNS = tested on: SNB-19 CNS
SNB-75 CNS = tested on: SNB-75 CNS
SNB-78 CNS = tested on: SNB-78 CNS
SR leukemia = tested on: SR leukemia
SW-620 colon = tested on: SW-620 colon
UACC-257 melanoma = tested on: UACC-257 melanoma

Measured: TGI

CCc1nc2ccccc2c(=O)n1/N=C(\N=Nc1ccc(Cl)cc1)c1ccccc1Cl
80.4 µM: SK-MEL-28 melanoma
69.9 µM: UO-31 renal
71.6 µM: XF 498 CNS
74.2 µM: DMS 114 small cell lung
96.4 µM: MOLT-4 leukemia
64.9 µM: HOP-92 NSCLC
85.3 µM: LXFL 529 NSCLC
72.5 µM: RXF 393 renal
not listed: A549 NSCLC | CCRF-CEM leukemia | DLD-1 colon | EKVX NSCLC | HCC-2998 colon | HL-60(TB) leukemia | K-562 leukemia | KM12 colon | MALME-3M melanoma | NCI-H226 lung | NCI-H522 lung | OVCAR-3 ovarian | RPMI-8226 leukemia | SK-MEL-2 melanoma | SNB-19 CNS | SNB-75 CNS | SNB-78 CNS | SR leukemia | SW-620 colon | UACC-257 melanoma
> 100 µM: all other assays above

CC(=O)OC1CC2OC(Cc3ccccc32)O1 (stereo not drawn)
63.7 µM: MALME-3M melanoma
81.6 µM: SF-539 CNS
94.9 µM: HOP-18 NSCLC
not listed: A498 renal | CAKI-1 renal | HCT-15 colon | RXF-631 renal
> 100 µM: all other assays above
